Laboratory results: paper PMC12365674, “Diverse metabolites with anti-psoriasis potential from different fermentations of the fungicolous fungus Xylarialongipes HFG1018” (IMA Fungus, 2025)
Entries after “also recorded” stand apart in the source; their conditions may differ. Where two headings read alike, the source gives them in different places.

How the values were obtained:
HaCaT cells [1] = assay: Antiproliferative activity against HaCaT cells (CCK-8); type: cell-based; details: read-out: IC50 against the proliferation of HaCaT cells
Experimental: (§1) As previously described, the immunosuppressive activity, lymphocyte viability, and antiproliferative activity against HaCaT cells were evaluated using the CCK-8 method ([Zhao et al. 2023], [2024]).
(§2) In the immunosuppressive and lymphocyte viability, the primary tested concentration of all compounds was 20.0 μM, and dexamethasone (Dex) (c = 2.0 μM) was used as a positive control. In the antiproliferative activity against HaCaT cells, the primary tested concentration of all compounds was 40 μM, and the positive control was methotrexate (MTX) (c = 40.0 μM). When the inhibition rates are greater than 50%, the IC50 values of active compounds will be further tested and calculated. All experiments were performed in triplicate.

[2] = system: ConA-induced T lymphocytes; assay: Anti-proliferative activity against ConA-induced T lymphocytes (CCK-8); type: cell-based; details: Mus musculus, T-lymphocyte; for IC50: induced proliferation of T lymphocytes (ConA), CCK-8, read-out: T cells IC50; for inhibition at 20 µM: c = 20 μM
Experimental: as §1, §2

[3] = system: LPS-induced B lymphocytes; assay: Anti-proliferative activity against LPS-induced B lymphocytes (CCK-8); type: cell-based, mouse; details: Mus musculus, Lymphocyte; for IC50: induced proliferation of B lymphocytes (LPS), CCK-8, read-out: B cells IC50; for inhibition at 20 µM: c = 20 μM
Experimental: as §1, §2

[4] = Lymphocyte viability (CCK-8); type: cell-based, mouse; details: mouse, lymphocytes; lymphocyte viability; CCK-8
Experimental: as §1, §2

HaCaT cells [5] = assay: EdU proliferation assay, HaCaT cells; type: cell-based; details: c = 20 μM; compared to the control group
Experimental: (§3) EdU fluorescence labeling for cell proliferation of induced T/B lymphocytes (2 × 10^5 cells/well) and HaCaT cells (1 × 10^4 cells/well) of active compounds 10, 19, 23, 32, 38, and 41 (final concentration 10 or 20 μM) was performed as previously reported ([Biram and Shulman 2020]; [Zhao et al. 2024]). EdU (HF488) (the Click-iT™ EdU Flow Cytometry Assay Kit, APExBIO, USA) was added 24 h (final concentration 50 μM, T and B cells) and 4 h (final concentration 10 μM, HaCaT cells) before harvesting the cells. All procedures were performed according to the manufacturer’s instructions for the click reaction. EdU-positive cells and proliferating phase cells were analyzed with a fluorescence microscope.

lymphocytes [6] = assay: Lymphocyte viability (CCK-8); type: cell-based, mouse
Experimental: as §1, §2

[7] = system: ConA-induced T lymphocytes; assay: Anti-proliferative activity against ConA-induced T lymphocytes (CCK-8); type: cell-based; details: Mus musculus, T-lymphocyte, c = 40 μM, read-out: Inhibition rate (%) T
[8] = system: LPS-induced B lymphocytes; assay: Anti-proliferative activity against LPS-induced B lymphocytes (CCK-8); type: cell-based; details: Mus musculus, Lymphocyte, c = 40 μM, read-out: Inhibition rate (%) B
lymphocytes [9] = assay: Lymphocyte viability (CCK-8); type: cell-based, mouse; details: c = 40 μM
[10] = system: induced T cells (Con A 5 μg/mL); assay: EdU proliferation assay, induced T cells; type: cell-based, mouse; details: c = 20 μM; relative to the model group
Experimental: as §3

[11] = system: induced B cells (LPS 15 μg/mL); assay: EdU proliferation assay, induced B cells; type: cell-based, mouse; details: c = 20 μM; relative to the model group
Experimental: as §3

IFN-γ = assay: Cytokine analysis by ELISA of induced T cells: IFN-γ; type: cell-based, mouse; details: ConA-induced T cells, 48 h; all sample groups; P < 0.0001 vs. model
Experimental: (§4) The mononuclear cell suspensions (2 × 10^5 cells/well) were cultured with ConA (5 μg/mL) in 96-well plates, and indicated concentrations of compounds 2, 15, and 32 were added simultaneously. After a 48-hour culture period, cytokines in the supernatants were quantified using mouse IFN-γ, IL-2, and IL-17A ELISA kits (Mabtech, Sweden), following the manufacturer’s protocol ([Jing et al. 2021]; [Zhao et al. 2024]).

IL-17A = assay: Cytokine analysis by ELISA of induced T cells: IL-17A; type: cell-based, mouse; details: 40 μM; ConA-induced T cells, 48 h; P < 0.05 vs. model
Experimental: as §4

[12] = ConA-induced T lymphocytes, read-out: Inhibition rate (%) T
[13] = LPS-induced B lymphocytes, read-out: Inhibition rate (%) B

Molecule: CCCCCC=C(C(=O)O)C(C)C(=O)O (stereo not drawn) [Compound 40, 2-hexylidene-3-methylsuccinic acid]
- IC50 (HaCaT cells [1]; Homo sapiens, HaCaT): 32.9 ± 3.4 µM

Molecule: CCc1ccc2occ(COC)c(=O)c2c1 [Compound 11, 6-ethyl-3-(methoxymethyl)-4H-chromen-4-one]
- IC50 [2]: > 20 µM
- IC50 [3]: 20 ± 1.5 µM
- CC50 [4]: > 20 µM

Molecule: CC(C)CC1NC(=O)C2CCCN2C1=O [Compound 37, cyclo-((S)-Pro-(R)-Leu))]
- IC50 (HaCaT cells [1]; Homo sapiens, HaCaT): 32 ± 2.2 µM

Molecule: c1ccc2c3c([nH]c2c1)CNCC3 [Compound 36, tryptoline]
- IC50 [2]: > 20 µM
- IC50 [3]: 16.7 ± 1.8 µM
- CC50 [4]: > 20 µM

Molecule: CC(C)[C@@H](C)CC[C@@H](C)[C@H]1CC[C@H]2C3=C[C@@H](O)[C@@]4(O)C[C@@H](O)CC[C@]4(C)[C@H]3CC[C@]12C [Compound 33, (24S)-ergosta-7-ene-3β,5α,6β-triol]
- IC50 (HaCaT cells [1]; Homo sapiens, HaCaT): 33.9 ± 2.8 µM

Molecule: COc1ccc2oc(C)cc(=O)c2c1O [Compound 19, 5-hydroxy-6-methoxy-2-methyl-4H-1-benzopyran-4-one]
- IC50 (HaCaT cells [1]; Homo sapiens, HaCaT): 29.7 ± 3.3 µM
- proliferation rates of HaCaT cells measured by EdU (HaCaT cells [5]): significantly reduced

Molecule: CC(C)C(C)C(OC1OC(CO)C(O)C(O)C1O)C(O)C(C)C1CCC2=C3C=CC4=CC(=O)CCC4(C)C3CCC21C [Compound 41, 22,23-dihydroxy-ergosta-4,6,8(14)-trien-3-one-23-β-D-glucopyranoside]
- IC50 [2]: 12.1 ± 1.7 µM
- IC50 [3]: 16.7 ± 1.9 µM
- CC50 [4]: > 20 µM
- IC50 (HaCaT cells [1]; Homo sapiens, HaCaT): 27.7 ± 2.5 µM
- proliferation rates of HaCaT cells measured by EdU (HaCaT cells [5]): significantly reduced

Molecule: COC(=O)c1ccc(O)c2c1C[C@@H](C)OC2=O [Compound 25, (R)-(−)-5-methoxycarbonylmellein]
- IC50 (HaCaT cells [1]; Homo sapiens, HaCaT): 35.1 ± 1.9 µM

Molecule: C[C@]1(CCO[C@H]2O[C@H](CO)[C@@H](O)[C@H](O)[C@@H]2O)CC[C@H]2C(=CC[C@@H]3[C@]2(C)CCC[C@]3(C)C(=O)O)C1 [Compound 16, 16-α-D-mannopyranosyloxyisopimar-7-en-19-oic acid]
- inhibition at 20 µM [2, 12]: 13.1 ± 2.7%
- inhibition at 20 µM [3, 13]: 19.3 ± 4.6%
- Cell validity (%) (lymphocytes [6]; c = 20 μM): 101.8 ± 6.9%
- inhibition at 40 µM [7]: 20.7 ± 4.3%
- inhibition at 40 µM [8]: 20.5 ± 10.6%
- Cell validity (%) (lymphocytes [9]): 96.2 ± 1.1%

Molecule: CC12CCOC(C1)C1=C(CCC3C(C)(C(=O)O)CCCC13C)C2 (stereo not drawn) [Compound 1, 11α,16-Epoxy-isopimar-8(9)-en-19β-oic acid]
- inhibition at 20 µM [2, 12]: 11.4 ± 6.4%
- inhibition at 20 µM [3, 13]: 18.9 ± 7.5%
- Cell validity (%) (lymphocytes [6]; c = 20 μM): 86.3 ± 2.1%
- inhibition at 40 µM [7]: 16.5 ± 1.5%
- inhibition at 40 µM [8]: 20.4 ± 6.3%
- Cell validity (%) (lymphocytes [9]): 90.7 ± 4.0%

Molecule: COc1cccc2c1C(=O)O[C@@H](C)C2 [Compound 22, (S)-8-methoxy-3-methylisochroman-1-one]
- IC50 (HaCaT cells [1]; Homo sapiens, HaCaT): 32.3 ± 1.5 µM

Molecule: COC(=O)c1c[nH]c2ccccc12 [Compound 28, 1H-indole-3-carboxylic acid methyl ester]
- IC50 (HaCaT cells [1]; Homo sapiens, HaCaT): 29.1 ± 1.7 µM

Molecule: CN(Cc1cnc2nc(N)nc(N)c2n1)c1ccc(C(=O)N[C@@H](CCC(=O)O)C(=O)O)cc1 [MTX, methotrexate, reference compound]
- IC50 (HaCaT cells [1]; Homo sapiens, HaCaT): 26.4 ± 1.4 µM

Molecule: CC(C)[C@@H](C)/C=C/[C@@H](C)[C@H]1CC[C@H]2C3=CC(=O)[C@@]4(O)C[C@@H](O)CC[C@]4(C)[C@@]3(O)CC[C@]12C [Compound 34, 3β,5α,9α-trihydroxy-(22E,24R)-ergosta-7,22-dien-6-one]
- IC50 (HaCaT cells [1]; Homo sapiens, HaCaT): 32.2 ± 3.4 µM

Molecule: CCC1CCc2occc(=O)c2C1O (stereo not drawn) [Compound 9, 6-ethyl-5-hydroxy-5,6,7,8-tetrahydro-4H-chromen-4-one]
- IC50 (HaCaT cells [1]; Homo sapiens, HaCaT): 35 ± 3.1 µM

Molecule: 3-methoxy-2-phenethyl-1H-pyrrole-1-carbaldehyde [Compound 35]
- IC50 (HaCaT cells [1]): 31.5 ± 2.4 µM

Molecule: C[C@]1(CCO[C@H]2O[C@H](CO)[C@@H](O)[C@H](O)[C@H]2O)CC[C@H]2C(=CC[C@@H]3[C@]2(C)CCC[C@]3(C)C(=O)O)C1 [Compound 17, 16-α-D-glucopyranosyloxyisopimar-7-en-19-oic acid]
- inhibition at 20 µM [2, 12]: 10.1 ± 4.4%
- inhibition at 20 µM [3, 13]: 11.5 ± 3.1%
- Cell validity (%) (lymphocytes [6]; c = 20 μM): 94.0 ± 5.6%
- inhibition at 40 µM [7]: 16.3 ± 4.3%
- inhibition at 40 µM [8]: 20.7 ± 6.9%
- Cell validity (%) (lymphocytes [9]): 100.0 ± 8.5%

Molecule: CC[C@@]1(O)CCc2occ(COC)c(=O)c2[C@@H]1O [Compound 13, (5S,6R)-6-ethyl-5,6-dihydroxy-3-(methoxymethyl)-5,6,7,8-tetrahydro-4H-chromen-4-one]
- IC50 (HaCaT cells [1]; Homo sapiens, HaCaT): 31.1 ± 2.6 µM

Molecule: COc1ccc(O)c2c1C(=O)O[C@@H](C)C2 [Compound 24, (S)-5-hydroxy-8-methoxy-3-methylisochroman-1-one]
- IC50 (HaCaT cells [1]; Homo sapiens, HaCaT): 32.5 ± 2 µM

Molecule: C[C@@H]1Cc2c(C(=O)O)ccc(O)c2C(=O)O1 [Compound 30, (R)-5-carboxymellein]
- IC50 (HaCaT cells [1]; Homo sapiens, HaCaT): 31.2 ± 4.1 µM

Molecule: C[C@]1(CCO[C@H]2O[C@H](CO)[C@@H](O)[C@H](O)[C@@H]2O)CCC2=C(CC[C@H]3[C@@](C)(C(=O)O)CCC[C@]23C)C1 [Compound 2, 16-α-D-Mannopyranosyloxyisopimar-8(9)-en-19-oic acid]
- inhibition at 20 µM [2, 12]: 23.8 ± 0.9%
- inhibition at 20 µM [3, 13]: 24.9 ± 8.6%
- Cell validity (%) (lymphocytes [6]; c = 20 μM): 100.0 ± 2.4%
- proliferation of induced T cells measured by EdU [10]: significantly suppressed the proliferation
- proliferation of induced B cells measured by EdU [11]: significantly suppressed the proliferation
- IFN-γ secretion (IFN-γ): significant reduction; also recorded: significantly reduced
- IL-17A levels (IL-17A): markedly lowered
- inhibition at 40 µM [7]: 32.8 ± 6.8%
- inhibition at 40 µM [8]: 30.6 ± 6.2%
- Cell validity (%) (lymphocytes [9]): 89.8 ± 7.9%

Molecule: C[C@@H]1C[C@H]2[C@@H]3CCC4=CC(=O)C=C[C@]4(C)[C@@]3(F)[C@@H](O)C[C@]2(C)[C@@]1(O)C(=O)CO [Dex, dexamethasone, reference compound]
- inhibition at 2 µM ([2]; c = 2 μM, ConA-induced T lymphocytes, read-out: Inhibition rate (%) T): 45.2 ± 4.9%
- IC50 [2]: 1.9 ± 0.1 µM
- inhibition at 2 µM ([3]; c = 2 μM, LPS-induced B lymphocytes, read-out: Inhibition rate (%) B): 68.6 ± 1.5%
- IC50 [3]: 1 ± 0.05 µM
- CC50 [4]: 0.2 ± 0.04 µM
- Cell validity (%) (lymphocytes [6]; c = 2 μM): 36.9 ± 2.2%

Molecule: C[C@]1(CCO[C@H]2O[C@H](CO)[C@@H](O)[C@H](O)[C@H]2O)CCC2=C(CC[C@H]3[C@@](C)(C(=O)O)CCC[C@]23C)C1 [Compound 3, 16-α-D-Glucopyranosyloxyisopimar-8(9)-en-19-oic acid]
- inhibition at 20 µM [2, 12]: 15.7 ± 7.9%
- inhibition at 20 µM [3, 13]: 11 ± 4.9%
- Cell validity (%) (lymphocytes [6]; c = 20 μM): 87.7 ± 7.4%
- inhibition at 40 µM [7]: 26.5 ± 3.3%
- inhibition at 40 µM [8]: 22.6 ± 9.6%
- Cell validity (%) (lymphocytes [9]): 89.9 ± 4.4%
